Laboratory results taken from patent publication US7585859B2, “PDE4B inhibitors and uses therefor” (Plexxikon, Inc., priority 2004, dated 2009).
Read-outs that look alike come from different tables or passages of the source.

What was measured:
PDE4D = biological target: T1, PDE4D (Homo sapiens, UniProt Q08499); test: PDE4 IC50 determination by Scintillation Proximity Assay, PDE4D; assay type: biochemical
T1 construct: PDE4D: The catalytic domain of human PDE4B from S3 16-V692; His6 (N); thrombin cleavage site (N); made in house; host or cells: E. coli
In short: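 Scintillation counts reflected [^3H]AMP captured on yttrium silicate SPA beads after enzyme hydrolysed [^3H]cAMP for 30 min at 30°. PDE4B was used at 80 ng/ml and PDE4D at 4 ng/ml. IC50 values came from non-linear regression.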

[1] = biological target: T2, full-length human PDE4B2 isozyme (Homo sapiens, UniProt Q07343); test: PDE4 IC50 determination by Scintillation Proximity Assay, PDE4B2; assay type: biochemical
T2 construct: The full-length human PDE4B2 isozyme; His6 (N); TEV cleavage site (N); made in house; host or cells: baculovirus infected insect cells (unpurified lysate)
In short: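 Unpurified His6-TEV-tagged full-length human PDE4B2 from baculovirus-infected insect cell lysate (2.5 μl of 50% glycerol stock/ml) hydrolysed [3H]cAMP in 50 mM Tris pH 7.5, 8.3 mM MgCl, 1.7 mM EGTA, 0.01% BSA for 30 min at 30°. Stopped with SPA beads in 18 mM ZnSO4; [3H]AMP scintillation counted, IC50 by non-linear regression.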

[2] = biological target: T3, full-length human PDE4D5 isozyme (Homo sapiens, UniProt Q08499); test: PDE4 IC50 determination by Scintillation Proximity Assay, PDE4D5; assay type: biochemical
T3 construct: The full-length human PDE4D5 isozyme; His6 (N); TEV cleavage site (N); made in house; host or cells: baculovirus infected insect cells (unpurified lysate)
In short: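 Unpurified His6-tagged full-length human PDE4D5 from baculovirus-infected insect cell lysate, 0.083 μl glycerol stock/ml, hydrolysed [3H]cAMP in Tris pH 7.5/MgCl/EGTA buffer, 30 min at 30°. ZnSO4/SPA beads stop; [3H]AMP counted. Controls: DMSO and roflumilast; 11-point duplicate curves, nonlinear-regression IC50.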

[3] = test system: TNFα levels in serum of LPS-challenged rats; test: Rat inhibition studies: serum TNFα after iv LPS challenge; assay type: in vivo; conditions: read-out: % inhibition r TNFα; for inhibition in vivo at 100 mg/kg: 100 mg/kg po
Protocol: All studies were done with male rats CD (SD) IGS BR (Crl) (Charles River, France), which were grouped in to 5 animal groups.
At the end of the acclimatization period, the non-fasted rats were weighed, individually identified on the tail with a permanent marker and administered by oral (po) or interperitoneal (ip) route with either vehicle, reference or test compound in a volume of 10 mL/kg adapted to the body weight. The animals were gathered in groups of 5 animals in a polystyrene labeled cage with sawdust covered floors. 2-hours after vehicle, reference or test substance administration, rats received an intravenous (iv) injection of 0.1 mg/kg LPS in a volume of 1 mL/kg of body weight. 2 h after LPS challenge (or as indicated in Tables 3B and 4B), blood samples were collected into tubes without anticoagulant by retro-orbital puncture under gas (isoflurane) anesthesia. Samples were allowed to clot at room temperature for 5 to 10 min then put on ice until there were prepared by centrifugation (6000×g for 3 min at 4° C.) and stored at −20° C. until use. TNFα levels were measured in serum samples in duplicate by ELISA technique according to the manufacturer's procedure (Rat TNFα kit Quantikine M (RTA00, R&D System, France)). Data are reported as percent decrease in observed TNFα levels versus TNFa levels observed for vehicle dosed animal groups.

[4] = Table 1B, Formula I compounds, read-out: IC50 PDE4D
[5] = Table 1B, Formula I compounds, read-out: IC50 PDE4B2
[6] = Table 1B, Formula I compounds, read-out: IC50 PDE4D5
[7] = po, 2 h, rat in vivo inhibition assay, 2 hr challenge delay
[8] = 2 h, rat, po, 2 hr challenge delay
[9] = po, 2 h, rat in vivo, 2 hr challenge delay, percent decrease in TNFα versus vehicle
[10] = second part of Table 2B (2-23 to 2-103), column 5, column is PDE4D in first part, read-out: IC 50 vs. indicated assay h TNFα
[11] = second part of Table 2B (2-23 to 2-103), column 4, column is PDE4B2 in first part, read-out: IC 50 vs. indicated assay h TNFα

T3 sequence (Q08499 1-745 isoform Q08499-6): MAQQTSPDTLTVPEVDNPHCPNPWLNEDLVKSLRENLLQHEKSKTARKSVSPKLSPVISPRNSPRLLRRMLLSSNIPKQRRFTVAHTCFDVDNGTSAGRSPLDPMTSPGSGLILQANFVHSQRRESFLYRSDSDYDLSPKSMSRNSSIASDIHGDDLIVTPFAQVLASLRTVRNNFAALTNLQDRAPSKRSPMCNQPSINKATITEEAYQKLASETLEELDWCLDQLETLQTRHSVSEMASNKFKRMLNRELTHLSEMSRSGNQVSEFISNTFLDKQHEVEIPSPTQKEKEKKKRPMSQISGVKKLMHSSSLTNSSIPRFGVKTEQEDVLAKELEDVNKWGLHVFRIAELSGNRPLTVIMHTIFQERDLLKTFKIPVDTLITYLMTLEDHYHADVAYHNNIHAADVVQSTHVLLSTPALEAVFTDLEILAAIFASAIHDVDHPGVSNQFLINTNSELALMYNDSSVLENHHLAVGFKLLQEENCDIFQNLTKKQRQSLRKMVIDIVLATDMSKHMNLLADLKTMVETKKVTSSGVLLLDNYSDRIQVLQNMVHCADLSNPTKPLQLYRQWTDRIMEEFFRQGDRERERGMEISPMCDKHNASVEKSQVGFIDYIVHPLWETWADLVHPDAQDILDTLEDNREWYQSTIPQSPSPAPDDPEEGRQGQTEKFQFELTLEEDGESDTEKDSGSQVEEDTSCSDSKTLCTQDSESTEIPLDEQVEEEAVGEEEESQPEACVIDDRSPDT
T2 sequence (Q07343 1-564 isoform Q07343-2): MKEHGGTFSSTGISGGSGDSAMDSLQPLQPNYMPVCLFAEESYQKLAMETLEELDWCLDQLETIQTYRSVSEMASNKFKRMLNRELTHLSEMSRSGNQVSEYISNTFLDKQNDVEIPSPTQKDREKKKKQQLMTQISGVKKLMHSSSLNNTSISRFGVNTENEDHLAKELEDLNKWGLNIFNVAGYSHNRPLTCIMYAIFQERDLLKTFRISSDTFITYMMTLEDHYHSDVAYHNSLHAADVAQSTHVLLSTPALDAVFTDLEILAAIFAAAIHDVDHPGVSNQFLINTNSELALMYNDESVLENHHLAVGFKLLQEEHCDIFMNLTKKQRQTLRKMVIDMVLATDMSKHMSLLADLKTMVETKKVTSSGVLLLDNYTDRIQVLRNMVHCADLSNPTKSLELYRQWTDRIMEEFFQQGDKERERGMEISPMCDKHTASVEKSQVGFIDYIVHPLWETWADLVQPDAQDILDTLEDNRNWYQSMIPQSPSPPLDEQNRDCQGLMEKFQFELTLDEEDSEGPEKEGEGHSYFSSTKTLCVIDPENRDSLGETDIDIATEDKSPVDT
T1 sequence (Q08499 380-756): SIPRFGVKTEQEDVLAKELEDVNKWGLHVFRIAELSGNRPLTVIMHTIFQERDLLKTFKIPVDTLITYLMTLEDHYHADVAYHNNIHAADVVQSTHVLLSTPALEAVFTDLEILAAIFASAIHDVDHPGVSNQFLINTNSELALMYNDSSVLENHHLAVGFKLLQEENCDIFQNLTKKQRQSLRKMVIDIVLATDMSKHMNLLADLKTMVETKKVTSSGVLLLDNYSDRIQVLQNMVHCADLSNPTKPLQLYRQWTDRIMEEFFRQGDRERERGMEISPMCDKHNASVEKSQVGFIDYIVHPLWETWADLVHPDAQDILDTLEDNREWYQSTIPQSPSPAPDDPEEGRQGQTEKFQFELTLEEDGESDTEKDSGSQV

Structure (SMILES)	IC50 (PDE4D; [4]) [µM]	IC50 [1, 5] [µM]	IC50 [2, 6] [µM]	inhibition in vivo at 50 mg [3, 8] [%]	other results
N#Cc1c(Nc2ccccc2)sc(C(=O)C2CC2)c1N [Compound 1-28, 4-Amino-5-cyclopropanecarbonyl-2-phenylamino-thiophene-3-carbonitrile]	< 10	< 10	< 10	–	inhibition in vivo at 100 mg/kg [3, 7]: < 20%
COc1ccc(C(=O)c2sc(Nc3ccccc3)c(C#N)c2N)cc1 [Compound 1-31]	< 10	< 10	< 10	–	inhibition in vivo at 200 mg ([3]; 1 h, rat, 200 mg, po, 1 hr challenge delay): < 20%; inhibition in vivo at 100 mg/kg [3, 7]: > 20%
CCOC(=O)c1c(NC2CCCC2)sc(C(=O)c2ccc(OC)cc2)c1N [Compound 1-191, 4-Amino-2-cyclopentylamino-5-(4-methoxy-benzoyl)-thiophene-3-carboxylic acid ethyl ester]	< 10	< 10	< 10	< 20	–
N#Cc1c(Nc2ccccc2)sc(C(=O)c2cc(-c3ccccc3)no2)c1N [Compound 1-192, 4-Amino-2-phenylamino-5-(3-phenyl-isoxazole-5-carbonyl)-thiophene-3-carbonitrile]	< 10	< 10	< 10	< 20	–
CC(C)Nc1sc(C(=O)c2cc(-c3ccccc3)no2)c(N)c1C#N [Compound 1-205, 4-Amino-2-isopropylamino-5-(3-phenyl-isoxazole-5-carbonyl)-thiophene-3-carbonitrile]	< 10	> 10	–	–	inhibition in vivo at 100 mg/kg [3, 7]: < 20%
CC(C)Nc1sc(C(=O)c2cc(-c3ccc(Cl)cc3)no2)c(N)c1C#N [Compound 1-212, 4-Amino-5-[3-(4-chloro-phenyl)-isoxazole-5-carbonyl]-2-isopropylamino-thiophene-3-carbonitrile]	> 10	< 10	> 10	–	inhibition in vivo at 90 mg ([3]; 2 h, rat, 90 mg, po, 2 hr challenge delay): > 20%
CC(C)CNc1sc(C(=O)c2cc(-c3ccccc3)no2)c(N)c1C(N)=O [Compound 1-236, 4-Amino-2-isobutylamino-5-(3-phenyl-isoxazole-5-carbonyl)-thiophene-3-carboxylic acid amide]	< 10	< 10	< 10	> 20	inhibition in vivo at 50 mg ([3]; 2 h, rat, ip, 2 hr challenge delay): > 20%
NC(=O)c1c(NC2CCCC2)sc(C(=O)c2cc(-c3ccccc3)no2)c1N [Compound 1-251, 4-Amino-2-cyclopentylamino-5-(3-phenyl-isoxazole-5-carbonyl)-thiophene-3-carboxylic acid amide]	< 10	< 10	< 10	> 20	–
Nc1nc(Nc2ccccc2F)sc1C(=O)c1cc(-c2ccccc2)no1 [Compound 2-6, [4-Amino-2-(2-fluoro-phenylamino)-thiazol-5-yl]-(3-phenyl-isoxazol-5-yl)-methanone]	–	–	–	–	IC50 (PDE4D; first part of Table 2B (2-1 to 2-22), read-out: IC 50 vs. indicated assay PDE4D): < 10 µM; IC50 ([1]; first part of Table 2B (2-1 to 2-22), read-out: IC 50 vs. indicated assay PDE4B2): < 10 µM; IC50 ([2]; first part of Table 2B (2-1 to 2-22), read-out: IC 50 vs. indicated assay PDE4D5): < 10 µM; inhibition in vivo at 100 mg/kg [3, 9]: > 20%
Nc1nc(Nc2ccc(Cl)cc2)sc1C(=O)c1cccc(C(F)(F)F)c1 [Compound 2-23, [4-Amino-2-(4-chloro-phenylamino)-thiazol-5-yl]-(3-trifluoromethyl-phenyl)-methanone]	–	–	–	–	IC50 (PDE4D; [10]): < 10 µM; IC50 [1, 11]: < 10 µM; inhibition in vivo at 100 mg/kg [3, 9]: < 20%
Nc1nc(NC2CCCC2)sc1C(=O)c1cccc(Cl)c1 [Compound 2-80, (4-Amino-2-cyclopentylamino-thiazol-5-yl)-(3-chloro-phenyl)-methanone]	–	–	–	–	IC50 (PDE4D; [10]): < 10 µM; IC50 [1, 11]: < 10 µM; inhibition in vivo at 100 mg/kg [3, 9]: > 20%
